Test: Human HepG2 cell viability assay in 384 well format
Assay type: toxicity, cell-based
Parameters: dose 125 nL, time 70.5 hour; cytotoxicity at 70.5 h: concentration not given beside the values
Conditions: HepG2 cells, read-out: Inhibition

## CN1CC(C(=O)NCc2ccc(OCc3cccnc3)cc2)CC1=O (stereo not given)
  cytotoxicity at 70.5 h: 12.9%

## Cc1nnc2n1CCN(CC(O)CN1CCC(C)CC1)C2 (stereo not given)
  cytotoxicity at 70.5 h: -2.86%

## CCc1ccc(C(=O)NC(C)c2ccc(S(C)(=O)=O)c(F)c2)o1 (stereo not given)
  cytotoxicity at 70.5 h: 13.1%

## CCN(C)CC1CCN(c2ncc(Br)cn2)C1 (stereo not given)
  cytotoxicity at 70.5 h: 9.92%

## O=C1COc2cccc(OCc3ccccn3)c2N1
  cytotoxicity at 70.5 h: -0.596%

## CN(CCS(=O)(=O)c1cc(Cl)ccc1Cl)CC(=O)Nc1cccc(F)c1
  cytotoxicity at 70.5 h: -0.61%

## Cc1cc(NCCOCCS(C)(=O)=O)nc2ccccc12
  cytotoxicity at 70.5 h: 1.59%

## CC(C1CC1)N(CC(=O)NCC(F)(F)F)C1CC1 (stereo not given)
  cytotoxicity at 70.5 h: 13.2%

## Cc1cccc(NCc2ncc(C(C)(C)C)o2)c1
  cytotoxicity at 70.5 h: 12.6%

## CC(=O)N1CCCN(C(=O)Cc2c(C)nc(C)[nH]c2=O)CC1
  cytotoxicity at 70.5 h: -0.651%

## CCC(C)CNCC1(S(C)(=O)=O)CCOCC1 (stereo not given)
  cytotoxicity at 70.5 h: -1.98%

## CC(CN1CCOCC1)OC(=O)c1cccc2cn[nH]c12 (stereo not given)
  cytotoxicity at 70.5 h: 12%

## CC(NCCCN1CCCN(C)CC1)C(C)(C)C (stereo not given)
  cytotoxicity at 70.5 h: -11.8%

## COCCOCCCNC(=O)c1cc(Cl)cc2cccnc12
  cytotoxicity at 70.5 h: -18.1%

## CC(CC1CC1)NCCCN1CCCN(C)CC1 (stereo not given)
  cytotoxicity at 70.5 h: 7.35%

## O=S(=O)(Cc1ccccc1)NCCc1nnc2n1CCC2
  cytotoxicity at 70.5 h: -7.99%

## O=S(=O)(Cc1ccc(F)cc1)NCc1nnc2n1CCC2
  cytotoxicity at 70.5 h: -24.3%

## Cc1ccc(C)n1-c1c(C(=O)NCC(c2ccsc2)N(C)C)cnn1C (stereo not given)
  cytotoxicity at 70.5 h: -14.4%

## Cn1nnnc1SCCC(=O)NCC1Cc2ccccc2O1 (stereo not given)
  cytotoxicity at 70.5 h: -23.7%

## Cc1ccc(C)n1-c1c(C(=O)NCC(C)N(C)C)cnn1C (stereo not given)
  cytotoxicity at 70.5 h: -0.908%

## CCOc1cccc(CNC(=O)c2cnn(CC)c2C(F)(F)F)c1
  cytotoxicity at 70.5 h: -2.57%

## CC(=O)c1ccc(-n2c(C)cn(CCC(=O)NC(N)=O)c2=O)cc1
  cytotoxicity at 70.5 h: -14.8%

## CCN(Cc1ccc(F)cc1Cl)C1CCS(=O)(=O)C1 (stereo not given)
  cytotoxicity at 70.5 h: -19.3%

## COc1cc(I)c(Cl)cc1C(=O)N(C)CC(C)(C)O
  cytotoxicity at 70.5 h: 21%

## O=C(Cn1cc(I)cn1)NCC1CCC1
  cytotoxicity at 70.5 h: -20.2%

## O=C(NCCC1CC1)NCc1cccc(-n2ccnc2)c1
  cytotoxicity at 70.5 h: -2.8%

## Cc1ccc(CCCC(=O)N2CCC(CS(N)(=O)=O)CC2)s1
  cytotoxicity at 70.5 h: -18.3%

## Cc1cc(F)c(S(=O)(=O)Nc2ccn(CCCC#N)n2)cc1F
  cytotoxicity at 70.5 h: -16%

## Cc1cc(F)cc(S(=O)(=O)Nc2ccn(CCCC#N)n2)c1
  cytotoxicity at 70.5 h: -9.51%

## Cc1cncc(NC(=O)c2ccc(CN3CCC(CO)CC3)cc2)c1
  cytotoxicity at 70.5 h: -16.3%

## CCS(=O)(=O)c1ccc2c(c1)N1CCS(=O)(=O)N=C1O2
  cytotoxicity at 70.5 h: -15.4%

## NS(=O)(=O)CC1CCCN(C(=O)CCCC2CCCC2)C1 (stereo not given)
  cytotoxicity at 70.5 h: -12.7%

## COCCCN(Cc1ccccc1Cl)C1CCS(=O)(=O)C1 (stereo not given)
  cytotoxicity at 70.5 h: 25.3%

## N#Cc1cccc(CN(CCO)Cc2ccsc2)c1
  cytotoxicity at 70.5 h: -20.4%

## CCOc1cc(C(=O)O)cc(-c2ccccc2)c1OC
  cytotoxicity at 70.5 h: -1.01%

## O=C(CNC(=O)C1CC1)NCC(F)(F)F
  cytotoxicity at 70.5 h: 1.27%

## N#Cc1ccc(N2CCN(c3nccs3)CC2)nc1
  cytotoxicity at 70.5 h: -0.838%

## N#Cc1ccc(N2CCCN(c3nccs3)CC2)nc1
  cytotoxicity at 70.5 h: 1.75%

## CN1CCC(CNC(=O)c2cccc(NC(N)=O)c2)c2ccccc21 (stereo not given)
  cytotoxicity at 70.5 h: -2.27%

## Cc1ccc(C(=O)NCC2CCN(C)c3ccccc32)c(=O)[nH]1 (stereo not given)
  cytotoxicity at 70.5 h: -2.94%

## CCn1c(CN2CCOC(Cn3cccn3)C2)nc2c(F)cccc21 (stereo not given)
  cytotoxicity at 70.5 h: -3.89%

## CCc1noc(CN(C)CCC(=O)Nc2ccccc2C#N)n1
  cytotoxicity at 70.5 h: -1.02%

## CC(C)Oc1ccccc1CNC(=O)c1[nH]ncc1Br
  cytotoxicity at 70.5 h: 7%

## Cn1c(CN2CCOC(Cn3cncn3)C2)nc2ccccc21 (stereo not given)
  cytotoxicity at 70.5 h: 13.6%

## CCCS(=O)(=O)NC(=O)c1ccc(Br)o1
  cytotoxicity at 70.5 h: 1.65%

## Clc1cccc(-c2noc(CCN3CCN(c4ccncc4)CC3)n2)c1
  cytotoxicity at 70.5 h: 4%

## O=S(=O)(Nc1ccccn1)c1cc(Cl)cc2c1OCC2
  cytotoxicity at 70.5 h: 4.53%

## O=S(=O)(Nc1nccs1)c1cc(Cl)cc2c1OCC2
  cytotoxicity at 70.5 h: 2.51%

## Cc1cc(CN2CC[C@H]3OCC[C@@]3(C(=O)N3CCOCC3)C2)no1
  cytotoxicity at 70.5 h: -5%

## CN(C)[C@@H]1CCN(S(C)(=O)=O)[C@H]1Cc1ccccc1
  cytotoxicity at 70.5 h: 1.53%

## CC(C)N(C)Cc1nnc2n1CCCN(c1cnccn1)C2
  cytotoxicity at 70.5 h: -4.42%

## O=C([C@H]1CC[C@@H]2[C@@H](CCN2c2ncccn2)O1)N1CCCCO1
  cytotoxicity at 70.5 h: -1.66%

## O=C(Cc1cccs1)N1Cc2nc(CN3CCCC3)oc2C1
  cytotoxicity at 70.5 h: 13%

## O=C(Cc1cccs1)N1Cc2nc(COCC3CC3)oc2C1
  cytotoxicity at 70.5 h: 0.985%

## NC(=O)N1CCc2ncc(CNC(=O)CC3CC3)n2CC1
  cytotoxicity at 70.5 h: 1.82%

## CC(C)n1nc(CN2CCCC2=O)c2c1CN(C(=O)c1ccco1)C2
  cytotoxicity at 70.5 h: -5.68%

## Cn1ncc2c1C(COCC1CC1)CN(c1ncc(F)cn1)C2 (stereo not given)
  cytotoxicity at 70.5 h: -4.28%

## Cc1nc(Cn2c3c(ccc2=O)CC(NC(N)=O)CC3)cs1 (stereo not given)
  cytotoxicity at 70.5 h: 5.59%

## CCN1CCOCC2(C1)CN(C(=O)c1c(C)noc1C)CCO2 (stereo not given)
  cytotoxicity at 70.5 h: -3.94%

## CS(=O)(=O)N1CCO[C@@H]2CN(C(=O)c3ccnnc3)C[C@@H]2C1
  cytotoxicity at 70.5 h: -2.42%

## CS(=O)(=O)N1C[C@H]2CN(CC3CC3)C(=O)[C@H]2C1
  cytotoxicity at 70.5 h: -2.81%

## CCOC1COC2(CCN(c3ncc(C)cn3)CC2)C1 (stereo not given)
  cytotoxicity at 70.5 h: -2.14%

## CS(=O)(=O)N1CCO[C@@H]2CN(C(=O)c3cccnc3)C[C@@H]2C1
  cytotoxicity at 70.5 h: -2.16%

## CC(=O)N1CCOC2(CCN(C(=O)c3cnoc3C)CC2)C1
  cytotoxicity at 70.5 h: 2.68%

## Cn1cc(CN2C[C@@H]3[C@@H](C2)OCC(=O)N3Cc2ccncc2)cn1
  cytotoxicity at 70.5 h: -6.23%

## O=C(C1CCC1)N1CCn2c(COc3ncccn3)nnc2C1
  cytotoxicity at 70.5 h: 1.54%

## C[C@@H]1CN(C(=O)c2ccc[nH]2)C[C@]12CCN(CCN1CCCC1)C2=O
  cytotoxicity at 70.5 h: -5.21%

## COCCN1C(=O)CC[C@@H]2[C@@H]1CCN2Cc1c(C)noc1C
  cytotoxicity at 70.5 h: -5.73%

## COCCN1CCC2(C1)c1ccccc1S(=O)(=O)N2C (stereo not given)
  cytotoxicity at 70.5 h: -10.1%

## CNC(=O)COC1COC2(CCN(Cc3cccnc3)CC2)C1 (stereo not given)
  cytotoxicity at 70.5 h: -9.98%

## O=C(c1cscn1)N1CCc2ncnc(-c3cccnc3)c2CC1
  cytotoxicity at 70.5 h: 18.5%

## O=C1N(Cc2ccncc2)CCC12CCCN(c1ncc(F)cn1)C2 (stereo not given)
  cytotoxicity at 70.5 h: 14.6%

## CN(C)[C@@H]1CCN(S(=O)(=O)C2CC2)[C@H]1Cc1ccccc1
  cytotoxicity at 70.5 h: 1.77%

## CC(C)CS(=O)(=O)N1C[C@H]2C[C@H](C(=O)N3CCN(C)CC3)[C@@H](C1)O2
  cytotoxicity at 70.5 h: -3.23%

## CCS(=O)(=O)N1CCOC2(CCCN(Cc3ccccn3)C2)C1 (stereo not given)
  cytotoxicity at 70.5 h: -1.63%

## Fc1cnc(N2CCCn3cnc(COc4cccnc4)c3C2)nc1
  cytotoxicity at 70.5 h: -2.49%

## CCS(=O)(=O)N1CCCn2cnc(COc3cccnc3)c2C1
  cytotoxicity at 70.5 h: -2.04%

## CCCS(=O)(=O)N1CCOC2(CCCN(Cc3ccccn3)C2)C1 (stereo not given)
  cytotoxicity at 70.5 h: -2.44%

## CS(=O)(=O)NC[C@H]1OC[C@H]2CN(CCc3ccccc3)CC[C@H]21
  cytotoxicity at 70.5 h: -0.811%

## CC(C)CN1C[C@H]2C[C@H](C(=O)N3CCCC3)[C@@H](C1)O2
  cytotoxicity at 70.5 h: -2.66%

## O=S(=O)(C1CC1)N1CCOC2(CCCN(Cc3ccccn3)C2)C1 (stereo not given)
  cytotoxicity at 70.5 h: -5.41%

## Cc1cnc(N2CCCn3c(nnc3CN(C)C(C)C)C2)nc1
  cytotoxicity at 70.5 h: -1.83%

## O=C1N(CC2CC2)CCC12CCCN(c1ncc(F)cn1)C2 (stereo not given)
  cytotoxicity at 70.5 h: -3.11%

## Cc1ccc(N2CC[C@H]3O[C@H](C(=O)N4CCCCO4)CC[C@H]32)nn1
  cytotoxicity at 70.5 h: -3.7%

## c1csc(CN2C[C@H](OCC3CCOCC3)[C@H]3COC[C@H]32)n1
  cytotoxicity at 70.5 h: 14.6%

## c1cc(CN2C[C@H](OCC3CCOCC3)[C@H]3COC[C@H]32)co1
  cytotoxicity at 70.5 h: 12.4%

## CN(C)[C@@H]1CN(C(=O)Cc2ccccc2)[C@@H]2CCCO[C@H]12
  cytotoxicity at 70.5 h: 15.5%

## CN(C)C(=O)CO[C@H]1CN(Cc2nccs2)[C@@H]2COC[C@H]12
  cytotoxicity at 70.5 h: -9.59%

## CN(C)[C@@H]1CN(C(=O)Cc2cccs2)[C@@H]2CCCO[C@H]12
  cytotoxicity at 70.5 h: -5.81%

## COCCN1CCc2ncnc(NC(C)C)c2CC1
  cytotoxicity at 70.5 h: -5.11%

## Cc1cnc(N2CC[C@H]3[C@@H]2CCC(=O)N3c2ccccc2)nc1
  cytotoxicity at 70.5 h: 5.23%

## Fc1cnc(N2CCO[C@H]3[C@H](OCCN4CCCC4)CC[C@@H]32)nc1
  cytotoxicity at 70.5 h: -8.48%

## CC(C)CCN1C[C@H]2C[C@H](C(=O)NCC(C)C)[C@@H](C1)O2
  cytotoxicity at 70.5 h: -2.84%

## Cn1cc(-c2ncc3c(c2C(=O)O)CCN(Cc2ccco2)C3)cn1
  cytotoxicity at 70.5 h: -5.93%

## CN(C)C(=O)CO[C@H]1CN(Cc2ccsc2)[C@@H]2COC[C@H]12
  cytotoxicity at 70.5 h: -1.85%

## O=C(c1cscn1)N1CC[C@@H]2[C@@H]1CCN2CC1CCOC1 (stereo not given in full)
  cytotoxicity at 70.5 h: -1.02%

## O=C(c1cscn1)N1CC[C@@H]2[C@@H]1CCN2C1CCOCC1
  cytotoxicity at 70.5 h: -3.43%

## COCCNC(=O)[C@@]12CCO[C@@H]1CCN(Cc1c(C)noc1C)C2
  cytotoxicity at 70.5 h: -5.87%

## Cn1cc(CN2CCC3(CC(=O)N(c4ccc5c(c4)OCO5)C3)C2)cn1 (stereo not given)
  cytotoxicity at 70.5 h: -9.01%

## O=C1N(Cc2cccnc2)CCC12CCCN(c1ncccn1)C2 (stereo not given)
  cytotoxicity at 70.5 h: 17.3%

## c1cncc(COCC2CC[C@H]3[C@H]2OCCN3Cc2ccoc2)c1 (stereo not given in full)
  cytotoxicity at 70.5 h: 11.3%

## Cc1ccc(CN2CCO[C@H]3[C@@H](OCc4cccnc4)CC[C@@H]32)o1
  cytotoxicity at 70.5 h: -14.9%

## CCn1ncc2c1C(COC)CN(c1ncc(F)cn1)C2 (stereo not given)
  cytotoxicity at 70.5 h: -9.93%

## Cn1nc(COCC2CC2)c2c1CN(CC1CC1)CC2
  cytotoxicity at 70.5 h: -0.347%

## O=C(C1CC1)N1Cc2[nH]nc(COCc3cccnc3)c2C1
  cytotoxicity at 70.5 h: -0.809%

## CN(C)c1ncc2c(c1C(=O)O)CCN(Cc1ccco1)C2
  cytotoxicity at 70.5 h: -4.04%

## CN(C)C(=O)c1n[nH]c2c1CN(CC1CCC1)C2
  cytotoxicity at 70.5 h: -1.39%

## CN(C)C(=O)c1n[nH]c2c1CN(CC1CCCCC1)C2
  cytotoxicity at 70.5 h: -2.71%

## CO[C@@H]1CCN(Cc2cccs2)[C@@H]2CN(Cc3ccncc3)C[C@@H]21
  cytotoxicity at 70.5 h: -3.45%

## CO[C@H]1CCN(Cc2c(C)noc2C)[C@@H]2CN(Cc3cccnc3)C[C@H]12
  cytotoxicity at 70.5 h: -7.23%
